Results reported in ChEMBL document CHEMBL5291721, “A preclinical secondary pharmacology resource illuminates target-adverse drug reaction associations of marketed drugs” (Nat Commun, 2023).

Assays:
[1] = biological target: T1, 5-hydroxytryptamine receptor 1A (Homo sapiens, UniProt P08908); format: functional, cell-based
T1 sequence (P08908 whole entry): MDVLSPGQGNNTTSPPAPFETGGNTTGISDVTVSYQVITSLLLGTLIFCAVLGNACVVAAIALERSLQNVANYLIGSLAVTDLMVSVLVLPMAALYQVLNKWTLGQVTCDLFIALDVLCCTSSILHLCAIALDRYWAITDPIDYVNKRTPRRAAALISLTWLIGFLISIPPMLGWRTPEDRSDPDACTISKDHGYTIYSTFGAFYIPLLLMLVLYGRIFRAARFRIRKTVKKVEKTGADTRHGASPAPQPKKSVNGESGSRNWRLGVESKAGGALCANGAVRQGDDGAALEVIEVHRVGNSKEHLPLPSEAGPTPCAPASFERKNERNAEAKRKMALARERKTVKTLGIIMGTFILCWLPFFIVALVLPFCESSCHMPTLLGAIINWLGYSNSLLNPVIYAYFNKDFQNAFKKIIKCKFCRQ

[2] = biological target: 3',5'-cyclic-AMP phosphodiesterase 4D (Homo sapiens, UniProt Q08499); format: functional
[3] = biological target: T2, Alpha-1A adrenergic receptor (Homo sapiens, UniProt P35348); format: functional, cell-based
T2 sequence (P35348 whole entry): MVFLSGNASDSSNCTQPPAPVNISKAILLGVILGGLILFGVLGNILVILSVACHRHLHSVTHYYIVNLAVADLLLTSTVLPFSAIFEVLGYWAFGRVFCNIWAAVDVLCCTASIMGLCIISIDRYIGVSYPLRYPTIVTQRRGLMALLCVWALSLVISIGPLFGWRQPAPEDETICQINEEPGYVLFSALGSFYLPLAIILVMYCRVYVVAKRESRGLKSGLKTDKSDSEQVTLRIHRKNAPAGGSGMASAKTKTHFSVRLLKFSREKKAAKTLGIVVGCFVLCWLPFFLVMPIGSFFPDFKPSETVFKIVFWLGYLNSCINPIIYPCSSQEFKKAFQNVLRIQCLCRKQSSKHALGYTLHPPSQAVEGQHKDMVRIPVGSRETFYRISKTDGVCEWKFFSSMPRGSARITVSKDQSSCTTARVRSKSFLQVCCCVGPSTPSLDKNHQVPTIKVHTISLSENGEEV

[4] = biological target: T1, 5-hydroxytryptamine receptor 1A; format: functional, cell-based; remark: listed apart in the source
Progesterone receptor = biological target: T3, Progesterone receptor (Homo sapiens, UniProt P06401); format: functional
T3 sequence (P06401 whole entry): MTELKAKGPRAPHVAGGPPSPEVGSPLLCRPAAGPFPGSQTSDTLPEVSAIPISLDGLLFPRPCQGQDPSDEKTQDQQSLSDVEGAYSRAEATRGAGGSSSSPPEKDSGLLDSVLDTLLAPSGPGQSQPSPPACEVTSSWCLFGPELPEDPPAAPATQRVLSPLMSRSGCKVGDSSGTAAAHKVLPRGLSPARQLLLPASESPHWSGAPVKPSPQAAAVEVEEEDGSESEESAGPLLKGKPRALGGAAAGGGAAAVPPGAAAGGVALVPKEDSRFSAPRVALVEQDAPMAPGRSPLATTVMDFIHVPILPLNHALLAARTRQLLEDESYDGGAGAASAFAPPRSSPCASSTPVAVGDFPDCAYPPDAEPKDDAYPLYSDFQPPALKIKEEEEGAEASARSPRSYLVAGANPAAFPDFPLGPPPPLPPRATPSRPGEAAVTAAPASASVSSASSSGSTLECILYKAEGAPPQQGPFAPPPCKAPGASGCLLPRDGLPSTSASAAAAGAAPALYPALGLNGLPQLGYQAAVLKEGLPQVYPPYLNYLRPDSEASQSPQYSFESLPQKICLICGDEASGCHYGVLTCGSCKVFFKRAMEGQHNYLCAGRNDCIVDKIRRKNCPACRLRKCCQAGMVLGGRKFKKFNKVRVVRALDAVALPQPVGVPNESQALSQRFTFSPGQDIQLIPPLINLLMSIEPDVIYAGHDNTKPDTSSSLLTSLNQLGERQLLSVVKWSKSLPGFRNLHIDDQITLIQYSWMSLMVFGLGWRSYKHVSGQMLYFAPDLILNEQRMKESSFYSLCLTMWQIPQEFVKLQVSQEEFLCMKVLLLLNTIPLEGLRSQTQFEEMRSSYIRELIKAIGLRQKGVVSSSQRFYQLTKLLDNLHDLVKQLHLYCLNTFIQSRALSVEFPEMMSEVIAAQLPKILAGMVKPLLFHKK

Histamine H3 receptor = Histamine H3 receptor (Homo sapiens, UniProt Q9Y5N1)
Vasopressin V1a receptor = Vasopressin V1a receptor (Homo sapiens, UniProt P37288)
Motilin receptor = Motilin receptor (Homo sapiens, UniProt O43193)
[5] = biological target: Growth hormone secretagogue receptor type 1 (Homo sapiens, UniProt Q92847)
[6] = biological target: T4, Neuropeptide Y receptor type 1 (Homo sapiens, UniProt P25929)
T4 sequence (P25929 whole entry): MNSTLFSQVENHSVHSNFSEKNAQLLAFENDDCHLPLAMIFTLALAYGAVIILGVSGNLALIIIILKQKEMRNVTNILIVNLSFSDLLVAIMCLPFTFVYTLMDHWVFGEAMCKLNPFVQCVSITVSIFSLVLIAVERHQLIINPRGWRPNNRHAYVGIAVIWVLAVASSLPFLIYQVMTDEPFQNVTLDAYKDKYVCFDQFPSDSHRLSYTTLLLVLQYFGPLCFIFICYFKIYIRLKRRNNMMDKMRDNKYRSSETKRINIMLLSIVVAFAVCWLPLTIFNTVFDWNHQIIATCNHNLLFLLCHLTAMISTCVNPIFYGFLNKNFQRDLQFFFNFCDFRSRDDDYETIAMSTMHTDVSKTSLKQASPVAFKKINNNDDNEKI

Thromboxane A2 receptor = biological target: T5, Thromboxane A2 receptor (Homo sapiens, UniProt P21731)
T5 sequence (P21731 whole entry): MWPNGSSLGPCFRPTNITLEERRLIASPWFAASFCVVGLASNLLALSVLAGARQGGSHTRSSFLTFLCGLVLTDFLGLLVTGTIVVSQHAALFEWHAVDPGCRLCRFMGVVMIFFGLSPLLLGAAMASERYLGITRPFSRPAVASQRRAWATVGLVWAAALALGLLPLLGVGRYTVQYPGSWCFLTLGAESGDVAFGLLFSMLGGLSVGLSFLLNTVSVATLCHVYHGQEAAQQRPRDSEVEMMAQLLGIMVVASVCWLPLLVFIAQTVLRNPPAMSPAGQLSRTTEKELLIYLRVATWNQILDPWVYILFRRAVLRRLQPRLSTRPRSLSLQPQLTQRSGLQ
Note: assay procedure not described here.

Sequence of 3',5'-cyclic-AMP phosphodiesterase 4D (Q08499 whole entry): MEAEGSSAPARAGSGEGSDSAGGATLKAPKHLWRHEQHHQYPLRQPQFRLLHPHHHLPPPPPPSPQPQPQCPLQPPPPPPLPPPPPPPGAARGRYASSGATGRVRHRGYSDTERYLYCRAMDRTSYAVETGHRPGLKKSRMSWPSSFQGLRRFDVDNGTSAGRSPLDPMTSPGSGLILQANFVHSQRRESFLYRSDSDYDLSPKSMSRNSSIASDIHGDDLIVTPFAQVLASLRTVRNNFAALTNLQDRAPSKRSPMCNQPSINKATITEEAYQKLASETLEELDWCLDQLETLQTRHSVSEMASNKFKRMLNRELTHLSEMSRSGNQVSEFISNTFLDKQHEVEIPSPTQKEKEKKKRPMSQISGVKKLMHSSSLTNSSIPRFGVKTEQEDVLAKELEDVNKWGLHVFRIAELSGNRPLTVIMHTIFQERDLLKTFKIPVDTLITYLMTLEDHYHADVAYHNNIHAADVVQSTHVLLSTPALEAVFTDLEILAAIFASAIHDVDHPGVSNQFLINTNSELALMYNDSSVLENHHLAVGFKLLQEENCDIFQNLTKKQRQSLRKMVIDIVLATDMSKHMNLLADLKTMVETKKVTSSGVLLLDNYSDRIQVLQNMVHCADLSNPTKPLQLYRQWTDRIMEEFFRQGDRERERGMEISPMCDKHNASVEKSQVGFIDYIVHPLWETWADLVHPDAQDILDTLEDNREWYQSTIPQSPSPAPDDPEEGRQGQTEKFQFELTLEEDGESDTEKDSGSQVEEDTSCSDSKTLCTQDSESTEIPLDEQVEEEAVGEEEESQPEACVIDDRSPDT
Sequence of Growth hormone secretagogue receptor type 1 (Q92847 whole entry): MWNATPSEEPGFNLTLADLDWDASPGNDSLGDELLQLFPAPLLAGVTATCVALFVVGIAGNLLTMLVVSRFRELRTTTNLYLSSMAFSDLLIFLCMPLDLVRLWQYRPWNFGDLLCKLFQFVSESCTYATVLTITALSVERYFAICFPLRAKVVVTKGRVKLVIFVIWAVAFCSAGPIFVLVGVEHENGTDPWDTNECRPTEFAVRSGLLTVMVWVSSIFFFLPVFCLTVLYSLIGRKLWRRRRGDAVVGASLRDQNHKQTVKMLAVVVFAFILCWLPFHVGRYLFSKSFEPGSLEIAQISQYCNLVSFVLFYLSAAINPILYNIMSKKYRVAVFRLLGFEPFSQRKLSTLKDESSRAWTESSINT
Sequence of Vasopressin V1a receptor (P37288 whole entry): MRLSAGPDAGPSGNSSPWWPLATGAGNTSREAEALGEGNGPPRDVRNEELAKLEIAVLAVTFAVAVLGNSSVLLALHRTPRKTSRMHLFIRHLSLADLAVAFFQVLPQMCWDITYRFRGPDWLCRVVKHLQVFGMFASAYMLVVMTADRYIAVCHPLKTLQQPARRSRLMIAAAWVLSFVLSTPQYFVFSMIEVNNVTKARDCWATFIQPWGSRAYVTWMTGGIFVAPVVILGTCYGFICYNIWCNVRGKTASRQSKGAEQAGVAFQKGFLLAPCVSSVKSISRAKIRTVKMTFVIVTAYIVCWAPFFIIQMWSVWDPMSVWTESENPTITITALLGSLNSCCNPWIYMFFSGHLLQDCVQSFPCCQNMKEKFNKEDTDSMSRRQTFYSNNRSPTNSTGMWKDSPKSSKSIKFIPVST
Sequence of Histamine H3 receptor (Q9Y5N1 whole entry): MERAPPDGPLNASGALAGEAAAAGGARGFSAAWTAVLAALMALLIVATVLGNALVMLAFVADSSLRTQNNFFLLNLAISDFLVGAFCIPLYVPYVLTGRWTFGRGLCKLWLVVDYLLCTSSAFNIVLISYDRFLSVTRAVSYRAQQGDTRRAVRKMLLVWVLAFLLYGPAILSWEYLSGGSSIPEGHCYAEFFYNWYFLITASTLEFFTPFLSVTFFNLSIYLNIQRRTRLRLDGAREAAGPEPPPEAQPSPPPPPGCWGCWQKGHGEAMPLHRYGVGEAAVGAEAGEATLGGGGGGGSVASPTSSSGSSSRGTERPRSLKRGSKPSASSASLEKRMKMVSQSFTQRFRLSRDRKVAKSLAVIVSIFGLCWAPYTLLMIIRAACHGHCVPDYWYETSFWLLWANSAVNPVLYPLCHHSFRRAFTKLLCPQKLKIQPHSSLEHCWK
Sequence of Motilin receptor (O43193 whole entry): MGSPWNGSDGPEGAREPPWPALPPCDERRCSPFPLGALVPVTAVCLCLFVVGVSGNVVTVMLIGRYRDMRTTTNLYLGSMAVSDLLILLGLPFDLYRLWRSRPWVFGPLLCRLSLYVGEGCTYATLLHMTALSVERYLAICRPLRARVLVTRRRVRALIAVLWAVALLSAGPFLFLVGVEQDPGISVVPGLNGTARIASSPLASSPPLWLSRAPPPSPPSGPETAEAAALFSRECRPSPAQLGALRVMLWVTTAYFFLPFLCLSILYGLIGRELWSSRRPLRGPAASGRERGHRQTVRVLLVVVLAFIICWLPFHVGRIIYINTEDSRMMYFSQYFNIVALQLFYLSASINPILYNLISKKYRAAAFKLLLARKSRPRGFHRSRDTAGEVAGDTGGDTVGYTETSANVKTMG

Row | Structure (SMILES) | AC50 [1] | AC50 [2] | AC50 [3] | AC50 [4] | AC50 (Progesterone receptor) | AC50 (Histamine H3 receptor) | AC50 (Vasopressin V1a receptor) | AC50 (Motilin receptor) | AC50 [5] | AC50 [6] | AC50 (Thromboxane A2 receptor)
1 | CC(C)NC(=N)NC(=N)Nc1ccc(Cl)c(Cl)c1 [CHLORPROGUANIL] | > 30 µM | > 30 µM | > 30 µM | > 30 µM | – | – | – | – | – | – | –
2 | Cc1cc(C2CCCCC2)n(O)c(=O)c1 [CICLOPIROX] | – | > 30 µM | > 30 µM | – | > 30 µM | – | – | – | – | – | –
3 | C[N+](C)(C)CCOP(=O)(O)OP(=O)([O-])OC[C@H]1O[C@@H](n2ccc(N)nc2=O)[C@H](O)[C@@H]1O [CITICOLINE] | – | > 30 µM | > 30 µM | > 30 µM | – | – | – | – | – | – | –
4 | Clc1ccc(Cn2c(CN3CCCC3)nc3ccccc32)cc1 [CLEMIZOLE] | > 30 µM | 28 µM | > 30 µM | > 30 µM | – | > 30 µM | > 30 µM | > 30 µM | > 30 µM | – | –
5 | CCC(=O)O[C@]1(C(=O)CCl)[C@@H](C)C[C@H]2[C@@H]3CCC4=CC(=O)C=C[C@]4(C)[C@@]3(F)[C@@H](O)C[C@@]21C [CLOBETASOL PROPIONATE] | – | > 30 µM | > 30 µM | > 30 µM | – | > 30 µM | – | 25 µM | > 30 µM | > 10 µM | –
6 | CNC[C@H](O)c1ccc(O)c(O)c1 [EPINEPHRINE] | – | > 30 µM | – | – | > 30 µM | > 30 µM | – | > 30 µM | > 30 µM | – | –
7 | COc1ccccc1OC1(C)OC(=O)c2ccccc2O1 (stereo not given) [GUAIMESAL] | – | – | – | – | > 30 µM | > 30 µM | > 30 µM | > 30 µM | > 30 µM | > 30 µM | > 30 µM
8 | CCCCCCCN(CC)CCCC(O)c1ccc(NS(C)(=O)=O)cc1 (stereo not given) [IBUTILIDE] | – | > 30 µM | > 30 µM | > 30 µM | > 30 µM | > 30 µM | > 30 µM | > 30 µM | > 30 µM | > 30 µM | > 30 µM
9 | CC[C@@H](CO)NC(=O)[C@@H]1C=C2c3cccc4c3c(cn4C)C[C@H]2N(C)C1 [METHYSERGIDE] | – | > 30 µM | 0.88 µM | 0.2 µM | – | > 10 µM | > 30 µM | > 10 µM | > 30 µM | > 30 µM | 24.5 µM
10 | CN1Cc2c(N)cccc2C(c2ccccc2)C1 (stereo not given) [NOMIFENSINE] | – | > 30 µM | > 30 µM | > 30 µM | > 30 µM | > 30 µM | > 30 µM | > 30 µM | > 30 µM | > 30 µM | > 30 µM
11 | Cn1cc(C(=O)[C@@H]2CCc3nc[nH]c3C2)c2ccccc21 [RAMOSETRON] | – | > 30 µM | > 30 µM | > 30 µM | > 30 µM | > 30 µM | > 30 µM | > 30 µM | > 30 µM | > 30 µM | > 30 µM
12 | CN(CCOc1ccc(CC2SC(=O)NC2=O)cc1)c1ccccn1 (stereo not given) [ROSIGLITAZONE] | – | 29 µM | > 30 µM | > 30 µM | > 30 µM | > 30 µM | > 30 µM | > 30 µM | > 30 µM | > 30 µM | > 30 µM
13 | COc1cc(C(=O)NS(=O)(=O)c2ccccc2C)ccc1Cc1cn(C)c2ccc(NC(=O)OC3CCCC3)cc12 [ZAFIRLUKAST] | – | 5.4 µM | > 30 µM | > 10 µM | 11.2 µM | > 10 µM | > 10 µM | > 10 µM | > 10 µM | > 10 µM | > 10 µM
14 | O=C1Cc2cc(CCN3CCN(c4nsc5ccccc45)CC3)c(Cl)cc2N1 [ZIPRASIDONE] | – | > 30 µM | > 30 µM | 0.95 µM | – | > 30 µM | > 10 µM | > 10 µM | > 30 µM | > 30 µM | > 30 µM
